Literature values in patent US20050228336A1, “Electrically assisted lidocaine and epinephrine delivery device having extended shelf-stability” (priority 2004, published 2005).

Settings: iontophoresis in vitro across human skin

Cumulative delivery compared with lidocaine, slightly greater delivery:
CCCN(CC)C(CC)C(=O)Nc1c(C)cccc1C (stereo not drawn) [etidocaine]
CCCNC(C)C(=O)Nc1ccccc1C (stereo not drawn) [prilocalne]
CCN(CC)CCOC(=O)c1ccc(N)cc1 [procaine]
